# Source: patent US12594282B2, “Use of small molecule compounds in the treatment of diseases mediated by lung epithelial cell injury and/or vascular endothelial cell injury” (Guangzhou Cellprotek Pharmaceutical Co., Ltd., priority 2020, dated 2026)
# Experiments:
# [1] = system: primary cerebellar granule neuron; assay: Intracellular lactate assay in glutamate-stimulated primary cerebellar granule neurons; type: cell-based, mice; conditions: 10 μM, pre-incubation 20 mins; 200 μM glutamate for 15 mins
# Protocol: The cells were obtained from SD P7-8 neonatal mice. The cerebellum was taken, and the meninges and blood vessels were removed using microtweezers; the isolated cerebellar tissue was transferred to another dish containing dissection solution. The tissue was cut into pieces as small as possible using a tissue scissor. Digestion: The tissue in pieces was added into 7 mL of 0.25% trypsin digestive solution with a pipet, and was digested at 37° C. for 15 mins; the bench surface was cleaned and the instruments were washed. The container was turned upside down several times every five minutes to bring the tissue into better contact with the digestive solution. End of digestion: After the digestion, it can be seen that the tissue was sticked together and suspended in the liquid due to cell disruption and release of DNA. The digestion was terminated by adding 3 mL of RNase-containing 10% FBS DMEM medium. […] The cells were counted with a hand-held cell counter, and the seeding density was 4.0-5.0×10^5 cells/mL. […]
# Pretreatment: The number of cells used for the determination of intracellular lactate content was 1-2*10^6. […] Centrifugation was performed at 16,000 g for 5 mins at 4° C., 160 μL of supernatant was collected into a new EP tube, and the remaining supernatant was subjected to BCA protein quantification. […]
# [2] = system: rat vascular endothelial cells (RAOEC); assay: OGD-R injury model, LDH detection, RAOEC; type: cell-based; conditions: OGD 4 hours, restoration 24 hours, 1, 3, 10 μM, prophylactic (1 hour before OGD) or therapeutic (at restoration)
# Protocol: HUVEC cells were cultured in modified DMEM medium containing 10% fetal bovine serum. When the cells reached about 80% confluence, the cells were digested with 0.25% trypsin, and then pipetted evenly with modified DMEM containing 10% fetal bovine serum. The cell concentration was adjusted to 1×10^5 cells/mL, and the cells were seeded at 400 uL/well in a 24-well plate, and the experiment was carried out when the cells grew to about 70% confluence. RAOEC cells were cultured in high-glucose DMEM medium containing 10% fetal bovine serum, and the seeding conditions were the same as those for HUVECs.
# The hypoxia workstation was set to have an oxygen concentration of 1% (1% O2, 5% CO2, 94% N2), a temperature of 37° C., and a humidity of 85%. A sugar-free DMEM medium was placed in the hypoxia workstation for pre-hypoxia for 3 hours. The medium in the culture plate was aspirated, and the plate was washed twice with preheated sugar-free DMEM medium, and 100 uL of sugar-free DMEM medium was added to each well. […]
# At the end of the experiment, 50 uL of medium was taken from each well into a 96-well plate, and then cytotoxicity was detected according to the operating instructions of the LDH detection kit. The results were calculated as follows: […]
structure (smiles),measurement,setting,value
"C[C@@]12CCCC1C1C[C@@H](O)[C@]3(O)C[C@@H](O)CC[C@]3(C)C1CC2 (stereo partly drawn) [YC-6, 5α-androst-3β,5,6β-triol]",glutamate-induced intracellular accumulation of lactate,[1],significantly inhibited the accumulation of lactate
same,OGD-R-induced increase in LDH release,[2],significantly reduced the OGD-R-induced increase in LDH release in a dose-dependent manner
